Data published in US7378435B2, “Aryl-isoxazole-4-carbonyl-indole-carboxylic acid amide derivatives” (Hoffmann-La Roche Inc., priority 2005, dated 2008).

biological target: T1, GABA A receptor α5β3γ2 (Homo sapiens, UniProt P18507+P31644); assay: [3H]flumazenil competition binding, human GABA A α5β3γ2 receptors expressed in HEK293 cells; details: not given
T1 construct: expressed in transfected cells; host or cells: HEK293 (transiently transfected for the human receptors)
Protocol: The affinity of compounds at GABA A receptor subtypes was measured by competition for [3H]flumazenil (85 Ci/mmol; Roche) binding to HEK293 cells expressing rat (stably transfected) or human (transiently transfected) receptors of composition α1β3γ2, α2β3γ2, α3β3γ2 and α5β3γ2.
Cell pellets were suspended in Krebs-tris buffer (4.8 mM KCl, 1.2 mM CaCl2, 1.2 mM MgCl2, 120 mM NaCl, 15 mM Tris; pH 7.5; binding assay buffer), homogenized by polytron for ca. 20 sec on ice and centrifuged for 60 min at 4° C. (50000 g; Sorvall, rotor: SM24=20000 rpm). The cell pellets were resuspended in Krebs-tris buffer and homogenized by polytron for ca. 15 sec on ice. Protein was measured (Bradford method, Bio-Rad) and aliquots of 1 mL were prepared and stored at −80° C.
Radioligand binding assays were carried out in a volume of […] (96-well plates) which contained […] of cell membranes, [3H]flumazenil at a concentration of 1 nM for α1, α2, α3 subunits and 0.5 nM for α5 subunits and the test compound in the range of […]. Nonspecific binding was defined by 10^−5 M diazepam and typically represented less than 5% of the total binding. Assays were incubated to equilibrium for 1 hour at 4° C. and harvested onto GF/C uni-filters (Packard) by filtration using a Packard harvester and washing with ice-cold wash buffer (50 mM Tris; pH 7.5). After drying, filter-retained radioactivity was detected by liquid scintillation counting. Ki values were calculated using Excel-Fit (Microsoft) and are the means of two determinations.

Going from Cc1onc(-c2cccc(F)c2)c1C(=O)c1cn(C)c2cc(C(=O)NCCN3CCOCC3)ccc12 [Example 41, 3-[3-(3-Fluoro-phenyl)-5-methyl-isoxazole-4-carbonyl]-1-methyl-1H-indole-6-carboxylic acid(2-morpholin-4-yl-ethyl)-amide] to Cc1onc(-c2cccc(F)c2)c1C(=O)c1cn(C)c2cc(C(=O)NC3CCOCC3)ccc12 [Example 45, 3-[3-(3-Fluoro-phenyl)-5-methyl-isoxazole-4-carbonyl]-1-methyl-1H-indole-6-carboxylic acid(tetrahydro-pyrann-4-yl)-amide], the Ki rises from 0.0249 µM to 0.049 µM (2-fold).

First: Cc1onc(-c2cccc(F)c2)c1C(=O)c1cn(C)c2cc(C(=O)NCc3ccco3)ccc12 [Example 42, 3-[3-(3-Fluoro-phenyl)-5-methyl-isoxazole-4-carbonyl]-1-methyl-1H-indole-6-carboxylic acid(furan-2-ylmethyl)-amide]
Second: C#CCNC(=O)c1ccc2c(C(=O)c3c(-c4cccc(F)c4)noc3C)cn(C)c2c1 [Example 44, 3-[3-(3-Fluoro-phenyl)-5-methyl-isoxazole-4-carbonyl]-1-methyl-1H-indole-6-carboxylic acidprop-2-ynylamide]
The Ki of the first is 2-fold higher: 0.0769 µM for the first, 0.0383 µM for the second. The second binds more tightly here.

Compared with Cc1onc(-c2cccc(F)c2)c1C(=O)c1cn(C)c2cc(C(=O)NCC3CC3)ccc12 [Example 43, 3-[3-(3-Fluoro-phenyl)-5-methyl-isoxazole-4-carbonyl]-1-methyl-1H-indole-6-carboxylic acidcyclopropylmethyl-amide], Cc1onc(-c2cccc(F)c2)c1C(=O)c1cn(-c2ccccc2)c2cc(C(=O)NC3CCCC3)ccc12 [Example 51, 3-[3-(3-Fluoro-phenyl)-5-methyl-isoxazole-4-carbonyl]-1-phenyl-1H-indole-6-carboxylic acidcyclopentylamide] is 1.7-fold lower in Ki: 0.0667 µM for the first, 0.0402 µM for the second. The second binds more tightly here.

same assay, conditions: Table 1; human α5, [3H]flumazenil, mean of two determinations; read-out: Ki h

First: Cc1onc(-c2cccc(F)c2)c1C(=O)c1c[nH]c2cc(C(=O)NCc3ccccn3)ccc12 [Example 27, 3-[3-(3-Fluoro-phenyl)-5-methyl-isoxazole-4-carbonyl]-1H-indole-6-carboxylicacid (pyridin-2-ylmethyl)-amide]
Second: Cc1onc(-c2cccc(F)c2)c1C(=O)c1c[nH]c2cc(C(=O)NCc3ccco3)ccc12 [Example 29, 3-[3-(3-Fluoro-phenyl)-5-methyl-isoxazole-4-carbonyl]-1H-indole-6-carboxylicacid (furan-2-ylmethyl)-amide]
The Ki of the first is 1.6-fold lower: 0.0394 µM for the first, 0.0621 µM for the second.

Compared with Cc1onc(-c2cccc(F)c2)c1C(=O)c1c[nH]c2cc(C(=O)NCCN3CCOCC3)ccc12 [Example 28, 3-[3-(3-Fluoro-phenyl)-5-methyl-isoxazole-4-carbonyl]-1H-indole-6-carboxylicacid (2-morpholin-4-yl-ethyl)-amide], Cc1onc(-c2cccc(F)c2)c1C(=O)c1c[nH]c2cc(C(=O)NC3CCOCC3)ccc12 [Example 32, 3-[3-(3-Fluoro-phenyl)-5-methyl-isoxazole-4-carbonyl]-1H-indole-6-carboxylicacid (tetrahydro-pyran-4-yl)-amide] is 1.8-fold higher in Ki: 0.0227 µM for the first, 0.0418 µM for the second.

Cc1onc(-c2cccc(F)c2)c1C(=O)c1c[nH]c2cc(C(=O)NCC3CC3)ccc12 [Example 30, 3-[3-(3-Fluoro-phenyl)-5-methyl-isoxazole-4-carbonyl]-1H-indole-6-carboxylicacidcyclopropylmethyl-amide] and CC(C)c1onc(-c2cccc(F)c2)c1C(=O)c1c[nH]c2cc(C(=O)NCC3CC3)ccc12 [Example 37, 3-[3-(3-Fluoro-phenyl)-5-isopropyl-isoxazole-4-carbonyl]-1H-indole-6-carboxylicacidcyclopropylmethyl-amide] are within 1.5-fold of each other in Ki: 0.0537 µM for the first, 0.0393 µM for the second.

C#CCNC(=O)c1ccc2c(C(=O)c3c(-c4cccc(F)c4)noc3C)c[nH]c2c1 [Example 31, 3-[3-(3-Fluoro-phenyl)-5-methyl-isoxazole-4-carbonyl]-1H-indole-6-carboxylicacid prop-2-ynylamide] and C#CCNC(=O)c1ccc2c(C(=O)c3c(-c4cccc(F)c4)noc3C(C)C)c[nH]c2c1 [Example 38, 3-[3-(3-Fluoro-phenyl)-5-isopropyl-isoxazole-4-carbonyl]-1H-indole-6-carboxylicacid prop-2-ynylamide] are within 1.5-fold of each other in Ki: 0.0319 µM for the first, 0.0315 µM for the second.

First: Cc1onc(-c2cccc(F)c2)c1C(=O)c1c[nH]c2cc(C(=O)NC3CCCC3)ccc12 [Example 33, 3-[3-(3-Fluoro-phenyl)-5-methyl-isoxazole-4-carbonyl]-1H-indole-6-carboxylicacidcyclopentylamide]
Second: Cc1onc(-c2cccc(F)c2)c1C(=O)c1c[nH]c2cc(C(=O)NC3CCC3)ccc12 [Example 34, 3-[3-(3-Fluoro-phenyl)-5-methyl-isoxazole-4-carbonyl]-1H-indole-6-carboxylicacidcyclobutylamide]
The Ki of the first is 1.6-fold higher: 0.0953 µM for the first, 0.059 µM for the second.

Cc1onc(-c2cccc(F)c2)c1C(=O)c1c[nH]c2cc(C(=O)NC3CC3)ccc12 [Example 35, 3-[3-(3-Fluoro-phenyl)-5-methyl-isoxazole-4-carbonyl]-1H-indole-6-carboxylicacidcyclopropylamide] and CC(C)c1onc(-c2cccc(F)c2)c1C(=O)c1c[nH]c2cc(C(=O)NC3CCCC3)ccc12 [Example 40, 3-[3-(3-Fluoro-phenyl)-5-isopropyl-isoxazole-4-carbonyl]-1H-indole-6-carboxylicacidcyclopentylamide] are within 1.5-fold of each other in Ki: 0.038 µM for the first, 0.0447 µM for the second.

CC(C)c1onc(-c2cccc(F)c2)c1C(=O)c1c[nH]c2cc(C(=O)NCc3ccco3)ccc12 [Example 36, 3-[3-(3-Fluoro-phenyl)-5-isopropyl-isoxazole-4-carbonyl]-1H-indole-6-carboxylicacid (furan-2-ylmethyl)-amide] and CC(C)c1onc(-c2cccc(F)c2)c1C(=O)c1c[nH]c2cc(C(=O)NC3CCOCC3)ccc12 [Example 39, 3-[3-(3-Fluoro-phenyl)-5-isopropyl-isoxazole-4-carbonyl]-1H-indole-6-carboxylicacid (tetrahydro-pyran-4-yl)-amide] are within 1.5-fold of each other in Ki: 0.0454 µM for the first, 0.0386 µM for the second.

First: Cc1onc(-c2cccc(F)c2)c1C(=O)c1cn(C)c2cc(C(=O)NC3CCCC3)ccc12 [Example 46, 3-[3-(3-Fluoro-phenyl)-5-methyl-isoxazole-4-carbonyl]-1-methyl-1H-indole-6-carboxylic acidcyclopentylamide]
Second: Cc1onc(-c2cccc(F)c2)c1C(=O)c1cn(-c2ccccc2)c2cc(C(=O)NC3CCOCC3)ccc12 [Example 50, 3-[3-(3-Fluoro-phenyl)-5-methyl-isoxazole-4-carbonyl]-1-phenyl-1H-indole-6-carboxylic acid(tetrahydro-pyran-4-yl)-amide]
The Ki of the first is 11-fold higher: 0.111 µM for the first, 0.0098 µM for the second. The second binds more tightly here.

Compared with Cc1onc(-c2cccc(F)c2)c1C(=O)c1cn(-c2ccccc2)c2cc(C(=O)NCc3ccco3)ccc12 [Example 47, 3-[3-(3-Fluoro-phenyl)-5-methyl-isoxazole-4-carbonyl]-1-phenyl-1H-indole-6-carboxylic acid(furan-2-ylmethyl)-amide], C#CCNC(=O)c1ccc2c(C(=O)c3c(-c4cccc(F)c4)noc3C)cn(-c3ccccc3)c2c1 [Example 49, 3-[3-(3-Fluoro-phenyl)-5-methyl-isoxazole-4-carbonyl]-1-phenyl-1H-indole-6-carboxylic acidprop-2-ynylamide] is 3-fold lower in Ki: 0.0253 µM for the first, 0.0085 µM for the second. The second binds more tightly here.

For Cc1onc(-c2cccc(F)c2)c1C(=O)c1cn(-c2ccccc2)c2cc(C(=O)NCC3CC3)ccc12 [Example 48, 3-[3-(3-Fluoro-phenyl)-5-methyl-isoxazole-4-carbonyl]-1-phenyl-1H-indole-6-carboxylic acidcyclopropylmethyl-amide], the Ki was 0.0138 µM.

same assay, conditions: human α5β3γ2, 0.5 nM [3H]flumazenil, mean of two determinations; read-out: Ki[μM] hα5

C#CCNC(=O)c1ccc2c(C(=O)c3c(-c4cccc(F)c4)noc3C)cn(-c3ccccc3)c2c1 [Example 49, 3-[3-(3-Fluoro-phenyl)-5-methyl-isoxazole-4-carbonyl]-1-phenyl-1H-indole-6-carboxylic acidprop-2-ynylamide] and Cc1onc(-c2cccc(F)c2)c1C(=O)c1cn(-c2ccccc2)c2cc(C(=O)NC3CCOCC3)ccc12 [Example 50, 3-[3-(3-Fluoro-phenyl)-5-methyl-isoxazole-4-carbonyl]-1-phenyl-1H-indole-6-carboxylic acid(tetrahydro-pyran-4-yl)-amide] are within 1.5-fold of each other in Ki: 0.0085 µM for the first, 0.0098 µM for the second.
